Entries after “also recorded” stand apart in the source; their conditions may differ.
Key:
ptc>dRet^M955T flies [1] = assay: fly rough eye phenotype; settings: APS6-45 100 μM, AD80 100 μM
[2] = system: dRet^M955T-expressing wing cells; assay: in vivo cell migration assay in developing wing discs; settings: for ptc>dRet^M955T-mediated EMT and cell migration/invasion: wing discs of ptc>dRet^M955T larvae; for effect of reduced Lk6 on suppression of cell migration by compound: 765>dRet^M955T
From the text: For in vivo cell migration assays, third-instar larvae were dissected to collect developing wing discs. After fixation with 4% paraformaldehyde in PBS, discs were whole-mounted and observed for dRet^M955T-expressing cells labeled with GFP under a confocal microscope. At least 20 wing discs were studied for each genotype or treatment. Phospho-Src was stained with anti-Src(pY418) antibody (Invitrogen).
In addition to directing late lethality, the ptc>dRet^M955T transgenes targeted dRet^M955T expression to a stripe of cells at the midline of the developing wing disc epithelium; cells were visualized with an included UAS-GFP transgene.

ptc>dRet^M955T flies [3] = assay: rescue-from-lethality assay in ptc>dRet^M955T flies (drug screening); assay type: in vivo, Drosophila; settings: drug in fly food, 25° C.
human RET = biological target: T1, human RET (Homo sapiens, UniProt P07949); assay: Kd measurement (KINOMEscan bead based competition assay), RET; assay type: binding; settings: cell-free in vitro
T1 construct: phage display fusion (kinase expressed on phage); purchased DiscoverX (KINOMEscan service); host or cells: phage
T1 sequence (P07949 29-1114): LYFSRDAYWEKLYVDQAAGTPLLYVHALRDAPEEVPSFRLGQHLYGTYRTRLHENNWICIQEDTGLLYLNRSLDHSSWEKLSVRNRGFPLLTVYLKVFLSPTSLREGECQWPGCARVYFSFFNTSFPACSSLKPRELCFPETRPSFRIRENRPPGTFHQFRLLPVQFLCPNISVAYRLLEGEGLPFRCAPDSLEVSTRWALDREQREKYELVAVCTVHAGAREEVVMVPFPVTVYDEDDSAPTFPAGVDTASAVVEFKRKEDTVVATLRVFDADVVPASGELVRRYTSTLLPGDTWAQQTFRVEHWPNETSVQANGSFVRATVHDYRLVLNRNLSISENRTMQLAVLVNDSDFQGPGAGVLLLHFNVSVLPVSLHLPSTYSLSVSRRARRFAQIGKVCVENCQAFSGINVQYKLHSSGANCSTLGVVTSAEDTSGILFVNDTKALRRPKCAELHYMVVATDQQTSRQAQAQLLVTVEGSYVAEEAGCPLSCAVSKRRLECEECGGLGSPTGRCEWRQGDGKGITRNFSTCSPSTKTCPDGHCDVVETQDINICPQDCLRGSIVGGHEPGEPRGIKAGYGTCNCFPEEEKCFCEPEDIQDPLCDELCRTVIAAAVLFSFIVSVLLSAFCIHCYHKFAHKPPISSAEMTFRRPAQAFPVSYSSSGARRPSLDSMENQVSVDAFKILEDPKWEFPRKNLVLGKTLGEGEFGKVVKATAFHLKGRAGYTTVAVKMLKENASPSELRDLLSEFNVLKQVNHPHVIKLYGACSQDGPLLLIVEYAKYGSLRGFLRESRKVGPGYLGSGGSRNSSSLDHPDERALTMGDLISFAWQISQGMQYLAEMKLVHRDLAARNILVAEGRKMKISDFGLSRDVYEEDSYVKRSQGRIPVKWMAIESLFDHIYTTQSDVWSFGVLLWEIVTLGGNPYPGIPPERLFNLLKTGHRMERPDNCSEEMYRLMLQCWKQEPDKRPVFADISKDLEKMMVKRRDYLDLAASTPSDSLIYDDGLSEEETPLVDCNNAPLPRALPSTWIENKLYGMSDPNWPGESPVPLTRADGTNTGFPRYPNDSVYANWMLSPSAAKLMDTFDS
Protocol: (§1) Kd values were determined by DiscoverX using a bead based competition assay (KINOMEscan). In brief, kinases were expressed on phage and immobilized on beads via active site-directed ligands. Test compounds were premixed with kinases and assayed for the ability to compete for immobilized ligands. Binding constants were calculated with a standard dose-response curve and the Hill equation, with Hill slope set to −1. […] For each sorafelog-kinase pair, an 11-point series ranging from 30,000 to 0.5 nM, in 3-fold dilutions, were used to derive Kd values. Kd values and s.e.m. are the average of two biological replicates.

human BRAF = biological target: T2, human BRAF (Homo sapiens, UniProt P15056); assay: Kd measurement (KINOMEscan bead based competition assay), BRAF; settings: in vitro binding assay
T2 construct: phage display fusion (kinase expressed on phage); purchased DiscoverX (KINOMEscan service); host or cells: phage
T2 sequence (P15056 whole entry, the tested form may be a part): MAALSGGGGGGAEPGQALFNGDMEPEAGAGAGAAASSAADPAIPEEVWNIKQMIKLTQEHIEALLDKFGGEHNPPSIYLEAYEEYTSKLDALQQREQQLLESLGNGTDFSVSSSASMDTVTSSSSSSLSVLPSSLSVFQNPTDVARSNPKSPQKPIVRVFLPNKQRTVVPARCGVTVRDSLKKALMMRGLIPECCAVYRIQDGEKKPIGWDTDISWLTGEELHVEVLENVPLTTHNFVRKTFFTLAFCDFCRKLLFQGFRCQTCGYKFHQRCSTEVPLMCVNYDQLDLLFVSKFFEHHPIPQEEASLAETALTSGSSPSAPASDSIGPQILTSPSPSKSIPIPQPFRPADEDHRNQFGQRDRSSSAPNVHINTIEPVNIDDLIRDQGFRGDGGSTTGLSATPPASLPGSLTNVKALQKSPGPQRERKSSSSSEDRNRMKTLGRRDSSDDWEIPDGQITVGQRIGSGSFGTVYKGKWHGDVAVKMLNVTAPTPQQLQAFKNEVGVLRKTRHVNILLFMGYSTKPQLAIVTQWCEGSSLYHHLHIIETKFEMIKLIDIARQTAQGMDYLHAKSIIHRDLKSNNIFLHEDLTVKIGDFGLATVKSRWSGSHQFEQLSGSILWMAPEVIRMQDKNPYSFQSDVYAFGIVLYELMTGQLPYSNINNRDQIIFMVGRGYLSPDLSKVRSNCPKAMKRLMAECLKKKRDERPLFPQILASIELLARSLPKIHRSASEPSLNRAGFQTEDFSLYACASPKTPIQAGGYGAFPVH
Protocol: Kd values were determined by DiscoverX using a bead based competition assay (KINOMEscan). In brief, kinases were expressed on phage and immobilized on beads via active site-directed ligands. Test compounds were premixed with kinases and assayed for the ability to compete for immobilized ligands. Binding constants were calculated with a standard dose-response curve and the Hill equation, with Hill slope set to −1. […] Kd values and s.e.m. are the average of two biological replicates.

765>dRet^M955T flies = assay: wing venation assay in adult flies; settings: for ectopic wing venation in 765>dRet^M955T flies: doses tested
From the text: More than 15 adult wings were scored for abnormal wing venation.

TT human MTC cells = assay: soft agar colony formation assay; assay type: cell-based; settings: colonies at three weeks
From the text: Imaged with ×40. […] Error bars, standard errors in triplicate.

MKNK1 = biological target: T3, MKNK1 (Homo sapiens, UniProt Q9BUB5); assay: Kd measurement (KINOMEscan bead based competition assay), MKNK1; assay type: binding; settings: in vitro
T3 construct: phage display fusion (kinase expressed on phage); purchased DiscoverX (KINOMEscan service); host or cells: phage
T3 sequence (Q9BUB5 whole entry, the tested form may be a part): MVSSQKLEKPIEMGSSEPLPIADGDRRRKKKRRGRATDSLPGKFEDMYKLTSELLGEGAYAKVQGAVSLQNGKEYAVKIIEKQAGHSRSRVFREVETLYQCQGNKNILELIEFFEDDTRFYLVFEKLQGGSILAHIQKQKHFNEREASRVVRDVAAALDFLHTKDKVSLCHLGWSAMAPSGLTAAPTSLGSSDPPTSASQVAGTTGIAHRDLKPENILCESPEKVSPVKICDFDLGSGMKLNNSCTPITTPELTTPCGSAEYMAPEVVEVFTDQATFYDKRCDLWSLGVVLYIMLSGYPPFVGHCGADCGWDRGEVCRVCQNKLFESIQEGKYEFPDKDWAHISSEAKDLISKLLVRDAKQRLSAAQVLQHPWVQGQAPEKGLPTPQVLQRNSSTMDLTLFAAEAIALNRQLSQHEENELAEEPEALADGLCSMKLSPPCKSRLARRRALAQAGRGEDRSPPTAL
Protocol: as §1

[4] = pharmacokinetics assay in mice (clinical signs); assay type: in vivo, mouse; settings: male ICR mice, 20 mg/kg orally
Protocol: Phamacokinetics assays for APS6-45 were performed by Medicilon Preclinical Research (Shanghai, China). 20 mg/kg of APS6-45 was dosed orally to male ICR mice (5-6 weeks of age), and its plasma concentrations were determined at 0.25, 0.5, 1, 2, 4, 8, 10, and 24 hours post dosing.

RET(M918T) = biological target: T4, RET(M918T) (Homo sapiens, UniProt P07949, M918T); assay: Kd measurement (KINOMEscan bead based competition assay), RET(M918T); assay type: binding; settings: in vitro
T4 construct: phage display fusion (kinase expressed on phage); purchased DiscoverX (KINOMEscan service); host or cells: phage
T4 sequence (P07949 29-1114 M918T): as the sequence (P07949 29-1114) above, with M890T counted along it
Protocol: as §1

TT cell tumors = assay: TT cell xenograft assay in nude mice; assay type: in vivo, mouse; settings: 10 mg/kg/day p.o.
Protocol: FIGS. 66C-E illustrate the effectiveness of the oral administration of APS6-45 to mice with xenografts. […] Dosing (10 mg/kg/day each) was started on day 0 after establishing TT cell tumors (˜120 mm^3) subcutaneously in nude mice. Error bars, standard errors (n=10). Cabo, cabozantinib; soraf, sorafenib. […] FIG. 66D and FIG. 67 illustrate Waterfall plots showing percent changes in tumor volume on day 30 relative to pretreatment baselines. Each bar represents a single animal. […] Asterisk, complete response. Two mice were lost during the course of the experiment due to unknown causes. Administration of APS6-45 had no effect on mouse body weight as illustrated in FIG. 66E (same legend as FIG. 66C).
Xenograft assays were also performed by Washington Biotechnology. 40 female nude mice (5-6 weeks) were implanted subcutaneously with TT cells. […]

toleration assay in mice = assay type: in vivo, mouse; settings: female athymic nude mice, oral doses escalated from 0.1 up to 160 mg/kg/day
Protocol: Toleration assays for APS6-45 were performed by Washington Biotechnology (Baltimore, Md.). Briefly, five female athymic nude mice (5-6 weeks) were administered with increasing oral doses of APS6-45 starting at 0.1 mg/kg/day and observed for 2 days for signs of clinical distress such as weight loss, discharges, and morbidity.

ptc>dRet^M955T flies [5] = assay: kinome genetic modifier screening of ptc>dRet^M955T flies in the presence of drug; assay type: in vivo, Drosophila
FRK = biological target: T5, FRK (Homo sapiens, UniProt P42685); assay: kinase percent inhibition measurement, FRK; assay type: biochemical; settings: cell-free kinase inhibition assay, compounds screened at 1 μM
T5 construct: purchased ThermoFisher
T5 sequence (P42685 whole entry): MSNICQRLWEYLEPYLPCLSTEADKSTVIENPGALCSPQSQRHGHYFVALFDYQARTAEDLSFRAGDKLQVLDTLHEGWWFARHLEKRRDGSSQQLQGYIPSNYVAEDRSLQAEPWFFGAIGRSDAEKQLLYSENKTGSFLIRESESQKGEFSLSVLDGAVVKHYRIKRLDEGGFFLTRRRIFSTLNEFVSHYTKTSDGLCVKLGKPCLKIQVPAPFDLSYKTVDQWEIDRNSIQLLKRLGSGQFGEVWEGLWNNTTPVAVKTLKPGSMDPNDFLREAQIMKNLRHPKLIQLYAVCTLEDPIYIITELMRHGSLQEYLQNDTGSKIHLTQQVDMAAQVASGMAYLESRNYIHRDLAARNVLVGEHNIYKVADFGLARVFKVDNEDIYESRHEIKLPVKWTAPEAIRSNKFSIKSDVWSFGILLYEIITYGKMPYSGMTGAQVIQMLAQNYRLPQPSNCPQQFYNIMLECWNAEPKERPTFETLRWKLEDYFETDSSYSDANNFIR
Protocol: (§2) The sorafelogs were assayed against a panel of purified human kinases (ThermoFisher) to measure percentage inhibition values and derive kinome profiles (FIG. 61). All compounds were screened at 1 μM, using two biological replicates to determine percent inhibition values. Detailed procedures for kinase reactions and assay formats are described at www.thermofisher.com/kinaseprofiling.

EPH = assay: kinase percent inhibition measurement, EPH; assay type: biochemical, human; settings: cell-free kinase inhibition assay, compounds screened at 1 μM
Protocol: as §2

non-oncogenic w^- flies = assay: whole-body toxicity in control, non-transformed flies; assay type: in vivo, Drosophila; settings: fed to control

In the case of `CC(C)n1nc(-c2ccc(NC(=O)Nc3cc(C(F)(F)F)ccc3F)cc2)c2c(N)ncnc21` [AD80, reference compound], the rough eye phenotype (ptc>dRet^M955T flies [1]) is reported as “did not”.
In the case of `CNC(=O)c1cc(Oc2ccc(NC(=O)Nc3cc(C(F)(F)F)ccc3F)c(F)c2)ccn1` [APS3-69-1, 4-(3-Fluoro-4-(3-(2-fluoro-5-(trifluoromethyl)phenyl)ureido)phenoxy)-N-methylpicolinamide], the “ptc>dRet^M955T-mediated EMT and cell migration/invasion” value [2] is reported as “strongly suppressed”.
In the case of `CNC(=O)c1cc(Oc2ccc(NC(=O)Nc3cc(C)ccc3F)cc2)ccn1` [APS4-35-1, 4-(4-(3-(2-Fluoro-5-methylphenyl)ureido)phenoxy)-N-methylpicolinamide], the “rescue of ptc>dRet^M955T viability, in words” value (“rescue … in words” below) (ptc>dRet^M955T flies [3]) is reported as “poor whole animal activity relative to LS1-15; also recorded: reduced rescue”.
In the case of `CNC(=O)c1cc(Oc2ccc(NC(=O)Nc3cc(C(F)F)ccc3F)cc2)ccn1` [APS4-54, 4-(4-(3-(5-(Difluoromethyl)-2-fluorophenyl)ureido)phenoxy)-N-methylpicolinamide], the “rescue … in words” value (ptc>dRet^M955T flies [3]) is reported as “poor whole animal activity relative to LS1-15; also recorded: reduced rescue”.
In the case of `CNC(=O)c1cc(Oc2ccc(NC(=O)Nc3cc(C(F)(F)C(F)(F)F)ccc3F)cc2)ccn1` [APS5-16-2, 4-(4-(3-(2-Fluoro-5-(perfluoroethyl)phenyl)ureido)phenoxy)-N-methylpicolinamide], the “RET binding / inhibition, in words” value (human RET) is reported as “retaining RET inhibition”, the “BRAF binding, in words” value (human BRAF) is reported as “significantly reduced BRAF binding” and the “rescue … in words” value (ptc>dRet^M955T flies [3]) is reported as “significant rescue; also recorded: strongly increased overall ptc>dRet^M955T survival beyond LS1-15”. The “ectopic wing venation in 765>dRet^M955T flies” value (765>dRet^M955T flies) was “exclusively suppressed wing venation; also recorded: failed to promote ectopic wing venation”, the MTC colony formation (TT human MTC cells) was “Suppression of MTC colony formation” and the “MKNK1 binding, in words” value (MKNK1) was “significantly reduced MKNK1 binding”. The “effect of reduced Lk6 on suppression of cell migration by compound” value (shortened to “effect of reduced Lk6”) [2] was “not affected”.
For `CNC(=O)c1cc(Oc2ccc(NC(=O)Nc3cc(C(F)(C(F)(F)F)C(F)(F)F)ccc3F)cc2)ccn1` [APS6-45, 4-(4-(3-(2-Fluoro-5-(perfluoropropan-2-yl)phenyl)ureido)phenoxy)-N-methylpicolinamide], the treatment-related clinical signs [4] was “No treatment-related clinical signs were observed”, the “activity against oncogenic RET, in words” value (RET(M918T)) was “lower activity” and the “RET binding / inhibition, in words” value (human RET) was “retaining RET inhibition; also recorded: lower activity; also recorded: weakest RET binding”. For the same compound, the “BRAF binding, in words” value (human BRAF) was “significantly reduced BRAF binding”, the “rescue … in words” value (ptc>dRet^M955T flies [3]) was “strongest efficacy; also recorded: strongly increased overall ptc>dRet^M955T survival beyond LS1-15” and the “rescue of ptc>dRet^M955T flies (rescued adults / total pupae, viability)” value (ptc>dRet^M955T flies [3]; optimal doses) was 84%. For the same compound, the “ectopic wing venation in 765>dRet^M955T flies” value (765>dRet^M955T flies) was “exclusively suppressed wing venation; also recorded: failed to promote ectopic wing venation”, the MTC colony formation (TT human MTC cells) was “Suppression of MTC colony formation” and the “TT cell tumor growth in nude mice” value (TT cell tumors) was “Suppression of TT cell growth in vivo”. The mouse body weight (TT cell tumors; xenograft study) was “no effect”, the rough eye phenotype (ptc>dRet^M955T flies [1]) was “strongly suppressed; also recorded: strongly rescued the rough eye phenotype” and the “MKNK1 binding, in words” value (MKNK1) was “only a small decrease”. The “effect of reduced Lk6” value [2] was “not affected” and the “signs of clinical distress (weight loss, discharges, morbidity)” value (toleration assay in mice) was “no such signs were observed”.
For `CNC(=O)c1cc(Oc2ccc(NC(=O)Nc3cccc(C(F)(F)F)c3)cc2)ccn1` [LS1-11-2, N-Methyl-4-(4-(3-(3-(trifluoromethyl)phenyl)ureido)phenoxy)picolinamide], the “rescue … in words” value (ptc>dRet^M955T flies [3]) was “reduced survival”.
For `CNC(=O)c1cc(Oc2ccc(NC(=O)Nc3cc(C(F)(F)F)ccc3F)cc2)ccn1` [LS1-15, 4-(4-(3-(2-Fluoro-5-(trifluoromethyl)phenyl)ureido)phenoxy)-N-methylpicolinamide], the “BRAF binding, in words” value (human BRAF) was “significant binding”, the “rescue … in words” value (ptc>dRet^M955T flies [3]) was “rescued viability significantly better than sorafenib; also recorded: most effective in rescuing lethality” and the “viability of drug-treated ptc>dRet^M955T flies (kinase-proficient control)” value (ptc>dRet^M955T flies [5]; 23° C.) was ~50%. The “survival to adulthood of ptc>dRet^M955T, Lk6^−/+ flies” value (ptc>dRet^M955T flies [5]; one active allele of Lk6 removed, in the presence of drug) was 0%, the “viability of ptc>dRet^M955T, phl^−/+ flies” value (ptc>dRet^M955T flies [5]; phl (Raf ortholog) heterozygous, in the presence of drug) was 96% and the “inhibition of FRK kinase activity” value (FRK) was “inhibit”. For the same compound, the “wing venation at higher concentrations” value (765>dRet^M955T flies; higher concentrations / high doses that rescue ptc>dRet^M955T viability) was “suppressed venation; also recorded: did not promote ectopic wing venation”, the “wing venation at low dose” value (765>dRet^M955T flies; low dose (10 μM)) was “enhanced venation; also recorded: stimulated significant excess wing vein material” and the “effect of reduced Lk6” value [2] was “reversed suppression”. The “ptc>dRet^M955T-mediated EMT and cell migration/invasion” value [2] was “strongly suppressed” and the “inhibition of EPH kinase activity” value (EPH) was “inhibit”.
With `CNC(=O)c1cc(Oc2ccc(NC(=O)c3ccc(Cl)c(C(F)(F)F)c3)cc2)ccn1` [LS1-37, 4-(4-(4-Chloro-3-(trifluoromethyl)benzamido)phenoxy)-N-methylpicolinamide] the whole body toxicity (non-oncogenic w^- flies) was “toxic” and the “ptc>dRet^M955T-mediated EMT and cell migration/invasion” value [2] was “worsened cell migration”.
With `CNC(=O)c1cc(Oc2ccc(NC(=O)Nc3ccc(Cl)c(C(F)(F)F)c3)c(F)c2)ccn1` [regorafenib, 4-(4-(3-(4-Chloro-3-(trifluoromethyl)phenyl)ureido)-3-fluorophenoxy)-N-methylpicolinamide, reference compound] the “rescue … in words” value (ptc>dRet^M955T flies [3]) was “weak efficacy”.

Source: US10519113B2, “Kinase inhibitor compounds, compositions, and methods of treating cancer” (ICAHN SCHOOL OF MEDICINE AT MOUNT SINAI, priority 2016, dated 2019)
